# Experiments:
# [1] = molecular target: T1, C. elegans ACAD10 KD (ACAD10 kinase domain) (Caenorhabditis elegans, UniProt O01590); test: […] incorporation, TLC, phosphorimaging; type: biochemical; settings: [γ-32P]ATP
# T1 construct: gene acds-10; kinase domain, residues 209-568, purified
# T1 sequence (O01590 209-568): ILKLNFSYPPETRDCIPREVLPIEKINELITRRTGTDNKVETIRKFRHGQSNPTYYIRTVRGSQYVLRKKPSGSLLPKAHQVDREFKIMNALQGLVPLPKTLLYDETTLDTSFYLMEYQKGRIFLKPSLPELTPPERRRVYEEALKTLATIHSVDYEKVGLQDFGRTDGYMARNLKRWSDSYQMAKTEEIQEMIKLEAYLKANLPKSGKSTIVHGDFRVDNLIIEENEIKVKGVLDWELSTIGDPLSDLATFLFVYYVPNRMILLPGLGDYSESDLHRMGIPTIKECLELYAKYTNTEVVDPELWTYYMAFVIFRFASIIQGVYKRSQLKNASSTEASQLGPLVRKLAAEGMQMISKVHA
# [2] = molecular target: T2, C. thermarum ACAD10 kinase domain (Caldalkalibacillus thermarum, UniProt F5L6J0); test: […] incorporation, TLC, phosphorimaging; type: biochemical; settings: activator; binding site only modelled, no density in crystal
# T2 construct: gene CathTA2_1440; purified prokaryotic ACAD10 kinase domain homolog; HYDxK motif with D214/K216, N219, DWE motif D234-E236, R61, E78
# [3] = molecular target: T1, C. elegans ACAD10 KD (ACAD10 kinase domain); test: […] incorporation into lipid, TLC; type: biochemical; settings: activator; purified domain with mouse liver mitochondrial extract as lipid source; Mg2+
# [4] = molecular target: T2, C. thermarum ACAD10 kinase domain; test: X-ray crystallography, […] Å; type: binding; settings: nucleotide groove between N- and C-lobe; Mg2+ and acetyl-CoA in crystallization, neither seen
# [5] = molecular target: T3, C. elegans ACAD10 phosphatase domain (Caenorhabditis elegans, UniProt O01590); test: dephosphorylation of […]-labelled lipid, TLC, phosphorimaging; type: biochemical; settings: labelled compound; Mg2+
# T3 construct: gene acds-10; phosphatase domain, residues 1-212
# T3 sequence (O01590 1-212): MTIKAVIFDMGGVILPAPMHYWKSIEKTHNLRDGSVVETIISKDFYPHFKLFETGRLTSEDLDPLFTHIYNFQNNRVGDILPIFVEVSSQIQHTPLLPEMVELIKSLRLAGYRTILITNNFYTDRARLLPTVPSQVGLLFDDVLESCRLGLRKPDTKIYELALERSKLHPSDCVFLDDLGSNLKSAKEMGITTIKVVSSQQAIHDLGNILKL
smiles,measurement,setting,value
"CCCCCCCCCCCCCCCCOCC(O)CO (racemic) [chimyl alcohol, 1-O-hexadecyl-rac-glycerol]","32P incorporation, TLC, phosphorimaging",[1],C. elegans ACAD10 phosphorylated chimyl alcohol (1-O-hexadecyl-rac-glycerol) (Figure 1G)
CC(=O)SCCNC(=O)CCNC(=O)[C@H](O)C(C)(C)COP(=O)(O)OP(=O)(O)OC[C@H]1O[C@@H](n2cnc3c(N)ncnc32)[C@H](O)[C@@H]1OP(=O)(O)O [acetyl-CoA],"32P incorporation, TLC, phosphorimaging",[2],acetyl-CoA stimulates C. thermarum ACAD10 kinase domain
same,"32P incorporation into lipid, TLC",[3],"In addition to acetyl-CoA, CoA alone or other CoA thioesters also activated"
Nc1ncnc2c1ncn2[C@@H]1O[C@H](COP(=O)(O)OP(=O)(O)NP(=O)(O)O)[C@@H](O)[C@H]1O [AMP-PNP],"X-ray crystallography, 2.15 Å",[4],crystal structure of the Caldalkalibacillus thermarum ACAD10 kinase domain bound to the ATP analog AMP-PNP
"CCCCCCCCCCCCCCCCOC[C@H](COP(=O)(O)O)OC(C)=O [1-alkyl (16:0), 2-acetyl (2:0), 1-O-alkyl-2-acetyl-sn-glycero-3-phosphate]","dephosphorylation of 32P-labelled lipid, TLC, phosphorimaging",[5],phosphatase domain selectively dephosphorylated 1-O-alkyl-2-acetyl-sn-glycero-3-phosphate but not 1-O-alkyl-2-acyl-sn-glycero-3-phosphate

# — publication doi:10.1101/2025.09.10.675409, “ACAD10 encodes two orphan enzymes in the ether lipid biosynthetic and salvage pathways” (bioRxiv, 2026)
